Data reported in patent publication US6838565B2, “Substituted benzoic acid amides, their preparation and their use as pharmaceutical compositions” (Boehringer Ingelheim Pharma GmbH & Co. KG, priority 2002, dated 2005).
Structures can show the parent of a compound that is named as a salt.

Biological target: T1, human factor Xa (Homo sapiens, UniProt P00742)
T1 construct: released from the colourless chromogenic substrate by human factor Xa; purchased Roche
Assay: Inhibition of factor Xa, enzyme-kinetic measurement with chromogenic substrate (Chromozym X)
Format: biochemical
Conditions: pNA release from Chromozym X 200 μMol/l, 405 nm, 37° C., pH 8.0, factor Xa 0.175 U/ml
Experimental: Method: Enzyme-kinetic measurement with chromogenic substrate. The quantity of p-nitroaniline (pNA) released from the colourless chromogenic substrate by human factor Xa is determined photometrically at 405 nm. It is proportional to the activity of the enzyme used. The inhibition of the enzyme activity by the test substance (in relation to the solvent control) is determined at various concentrations of test substance and from this the IC50 is calculated, as the concentration which inhibits the factor Xa used by 50%.
• Tris(hydroxymethyl)-aminomethane buffer (100 mmol) and sodium chloride (150 mmol), pH 8.0 • Factor Xa (Roche), spec. activity: 10 U/0.5 ml, final concentration: 0.175 U/ml for each reaction mixture • Substrate Chromozym X (Roche), final concentration: 200 μMol/l for each reaction mixture • Test substance: final concentration 100, 30, 10, 3, 1, 0.3, 0.1, 0.03, 0.01, 0.003, 0.001 μMol/l Procedure
10 μl of a 23.5-times concentrated starting solution of the test substance or solvent (control), 175 μl of tris(hydroxymethyl)-aminomethane buffer and 25 μl of a 1.65 U/ml Factor Xa working solution are incubated for 10 minutes at 37° C. After the addition of 25 μl of Chromozym X working solution (1.88 μmol/l) the sample is measured in a photometer (SpectraMax 250) at 405 nm for 150 seconds at 37° C.
• 1. […]

T1 sequence (P00742 235-488 limits assumed): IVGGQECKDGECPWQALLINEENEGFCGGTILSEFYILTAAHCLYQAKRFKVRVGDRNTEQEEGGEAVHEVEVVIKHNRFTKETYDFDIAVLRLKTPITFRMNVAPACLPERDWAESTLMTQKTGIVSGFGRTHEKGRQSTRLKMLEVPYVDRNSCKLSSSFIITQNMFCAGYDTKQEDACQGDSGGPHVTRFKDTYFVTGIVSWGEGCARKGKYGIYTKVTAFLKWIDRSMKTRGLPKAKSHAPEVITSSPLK
T1 sequence (P00742 41-179 partner limits assumed): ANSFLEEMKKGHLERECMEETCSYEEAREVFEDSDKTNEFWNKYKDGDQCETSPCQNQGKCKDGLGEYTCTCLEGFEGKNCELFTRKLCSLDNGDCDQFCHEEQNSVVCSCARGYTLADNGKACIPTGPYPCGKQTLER

IC50 [µM] | SMILES
0.008 | Cc1cc(C(=O)NC(Cc2nnn[nH]2)c2cccc(C(=N)N)c2)ccc1C(=O)N1CC=CC1 (centres unmarked) [(1), N-[1-(3-amidino-phenyl)-2-(1H-tetrazol-5-yl)-ethyl]-4-(2,5-dihydro-pyrrol-1-yl-carbonyl)-3-methyl-benzamide-hydrochloride]
0.026 | Cc1cc(C(=O)NC(Cc2nnn[nH]2)c2cccc(C(=N)N)c2)ccc1C(=O)N1CCCC1 (centres unmarked) [(2), N-[1-(3-amidino-phenyl)-2-(1H-tetrazol-5-yl)-ethyl]-3-methyl-4-(pyrrolidin-1-carbonyl)-benzamide-hydrochloride]
